From PMC10905675, “INX-315, a Selective CDK2 Inhibitor, Induces Cell Cycle Arrest and Senescence in Solid Tumors” (Cancer Discovery, 2023)

Tests used:
Assay in all cases: SelectScreen LanthaScreen Binding
Details in all cases: INX-0315 at 100nM
MET D1228H = target: T1, MET D1228H (Homo sapiens, UniProt P08581, D1228H)
T1 construct: purchased Thermo Fisher Scientific SelectScreen (plus Nanosyn / Reaction Biology for CDK/cyclin lines)
Source text: (§1) INX-315 was first evaluated in the SelectScreen Biochemical Kinase Profiling at Thermo Fisher Scientific (Madison, WI). The primary screen consisted of INX-315 dosed at a single concentration of 100 nmol/L in 1% DMSO across each platform within the SelectScreen array of assays, LanthaScreen Eu Kinase Binding Assay; AdaptaScreen; and Z'LyteScreen using preestablished conditions at Thermo Fisher Scientific as shown in Supplementary Table S2. […] The follow-up screen consisted of 10-point dose–response curves for INX-315 from 1 µmol/L to 0.0495 nmol/L.

MAP2K6 (MKK6) = target: T2, MAP2K6 (MKK6) (Homo sapiens, UniProt P52564)
T2 construct: purchased Thermo Fisher Scientific SelectScreen (plus Nanosyn / Reaction Biology for CDK/cyclin lines)
Source text: as §1

CAMKK1 (CAMKKA) = target: T3, CAMKK1 (CAMKKA) (Homo sapiens, UniProt Q8N5S9)
T3 construct: purchased Thermo Fisher Scientific SelectScreen (plus Nanosyn / Reaction Biology for CDK/cyclin lines)
Source text: as §1

ALK C1156Y = target: T4, ALK C1156Y (Homo sapiens, UniProt Q9UM73, C1156Y)
T4 construct: purchased Thermo Fisher Scientific SelectScreen (plus Nanosyn / Reaction Biology for CDK/cyclin lines)
Source text: as §1

TLK1 = target: T5, TLK1 (Homo sapiens, UniProt Q9UKI8)
T5 construct: purchased Thermo Fisher Scientific SelectScreen (plus Nanosyn / Reaction Biology for CDK/cyclin lines)
Source text: as §1

MAP3K10 (MLK2) = target: T6, MAP3K10 (MLK2) (Homo sapiens, UniProt Q02779)
T6 construct: purchased Thermo Fisher Scientific SelectScreen (plus Nanosyn / Reaction Biology for CDK/cyclin lines)
Source text: as §1

CDK9 (Inactive) = target: T7, CDK9 (Inactive) (Homo sapiens, UniProt P50750)
T7 construct: purchased Thermo Fisher Scientific SelectScreen (plus Nanosyn / Reaction Biology for CDK/cyclin lines)
Source text: as §1

STK39 (STLK3) = target: T8, STK39 (STLK3) (Homo sapiens, UniProt Q9UEW8)
T8 construct: purchased Thermo Fisher Scientific SelectScreen (plus Nanosyn / Reaction Biology for CDK/cyclin lines)
Source text: as §1

BRSK2 = target: T9, BRSK2 (Homo sapiens, UniProt Q8IWQ3)
T9 construct: purchased Thermo Fisher Scientific SelectScreen (plus Nanosyn / Reaction Biology for CDK/cyclin lines)
Source text: as §1

ACVRL1 (ALK1) = target: T10, ACVRL1 (ALK1) (Homo sapiens, UniProt P37023)
T10 construct: purchased Thermo Fisher Scientific SelectScreen (plus Nanosyn / Reaction Biology for CDK/cyclin lines)
Source text: as §1

BMPR1B (ALK6) = target: T11, BMPR1B (ALK6) (Homo sapiens, UniProt O00238)
T11 construct: purchased Thermo Fisher Scientific SelectScreen (plus Nanosyn / Reaction Biology for CDK/cyclin lines)
Source text: as §1

KIT Y823D = target: T12, KIT Y823D (Homo sapiens, UniProt P10721, Y823D)
T12 construct: purchased Thermo Fisher Scientific SelectScreen (plus Nanosyn / Reaction Biology for CDK/cyclin lines)
Source text: as §1

CDC7/DBF4 = target: T13, CDC7/DBF4 (Homo sapiens, UniProt O00311)
T13 construct: purchased Thermo Fisher Scientific SelectScreen (plus Nanosyn / Reaction Biology for CDK/cyclin lines)
Source text: as §1

ABL1 Q252H = target: T14, ABL1 Q252H (Homo sapiens, UniProt P00519, Q252H)
T14 construct: purchased Thermo Fisher Scientific SelectScreen (plus Nanosyn / Reaction Biology for CDK/cyclin lines)
Source text: as §1

TLK2 = target: T15, TLK2 (Homo sapiens, UniProt Q86UE8)
T15 construct: purchased Thermo Fisher Scientific SelectScreen (plus Nanosyn / Reaction Biology for CDK/cyclin lines)
Source text: as §1

MAPK9 (JNK2) = target: T16, MAPK9 (JNK2) (Homo sapiens, UniProt P45984)
T16 construct: purchased Thermo Fisher Scientific SelectScreen (plus Nanosyn / Reaction Biology for CDK/cyclin lines)
Source text: as §1

SLK = target: T17, SLK (Homo sapiens, UniProt Q9H2G2)
T17 construct: purchased Thermo Fisher Scientific SelectScreen (plus Nanosyn / Reaction Biology for CDK/cyclin lines)
Source text: as §1

MYLK4 = target: T18, MYLK4 (Homo sapiens, UniProt Q86YV6)
T18 construct: purchased Thermo Fisher Scientific SelectScreen (plus Nanosyn / Reaction Biology for CDK/cyclin lines)
Source text: as §1

RET G691S = target: T19, RET G691S (Homo sapiens, UniProt P07949, G691S)
T19 construct: purchased Thermo Fisher Scientific SelectScreen (plus Nanosyn / Reaction Biology for CDK/cyclin lines)
Source text: as §1

RET V804M = target: T20, RET V804M (Homo sapiens, UniProt P07949, V804M)
T20 construct: purchased Thermo Fisher Scientific SelectScreen (plus Nanosyn / Reaction Biology for CDK/cyclin lines)
Source text: as §1

KIT D820E = target: T21, KIT D820E (Homo sapiens, UniProt P10721, D820E)
T21 construct: purchased Thermo Fisher Scientific SelectScreen (plus Nanosyn / Reaction Biology for CDK/cyclin lines)
Source text: as §1

CDK8/cyclin C = target: T22, CDK8/cyclin C (Homo sapiens, UniProt P49336)
T22 construct: purchased Thermo Fisher Scientific SelectScreen (plus Nanosyn / Reaction Biology for CDK/cyclin lines)
Source text: as §1

KIT N822K = target: T23, KIT N822K (Homo sapiens, UniProt P10721, N822K)
T23 construct: purchased Thermo Fisher Scientific SelectScreen (plus Nanosyn / Reaction Biology for CDK/cyclin lines)
Source text: as §1

FYN A = target: T24, FYN A (Homo sapiens, UniProt P06241)
T24 construct: purchased Thermo Fisher Scientific SelectScreen (plus Nanosyn / Reaction Biology for CDK/cyclin lines)
Source text: as §1

PRKACB (PRKAC beta) = target: T25, PRKACB (PRKAC beta) (Homo sapiens, UniProt P22694)
T25 construct: purchased Thermo Fisher Scientific SelectScreen (plus Nanosyn / Reaction Biology for CDK/cyclin lines)
Source text: as §1

CAMK2G (CaMKII gamma) = target: T26, CAMK2G (CaMKII gamma) (Homo sapiens, UniProt Q13555)
T26 construct: purchased Thermo Fisher Scientific SelectScreen (plus Nanosyn / Reaction Biology for CDK/cyclin lines)
Source text: as §1

EPHA3 = target: T27, EPHA3 (Homo sapiens, UniProt P29320)
T27 construct: purchased Thermo Fisher Scientific SelectScreen (plus Nanosyn / Reaction Biology for CDK/cyclin lines)
Source text: as §1

CDK11/cyclin C = target: T28, CDK11/cyclin C (Homo sapiens, UniProt Q9BWU1)
T28 construct: purchased Thermo Fisher Scientific SelectScreen (plus Nanosyn / Reaction Biology for CDK/cyclin lines)
Source text: as §1

MAPK8 (JNK1) = target: T29, MAPK8 (JNK1) (Homo sapiens, UniProt P45983)
T29 construct: purchased Thermo Fisher Scientific SelectScreen (plus Nanosyn / Reaction Biology for CDK/cyclin lines)
Source text: as §1

MAP3K2 (MEKK2) = target: T30, MAP3K2 (MEKK2) (Homo sapiens, UniProt Q9Y2U5)
T30 construct: purchased Thermo Fisher Scientific SelectScreen (plus Nanosyn / Reaction Biology for CDK/cyclin lines)
Source text: as §1

MKNK2 (MNK2) = target: T31, MKNK2 (MNK2) (Homo sapiens, UniProt Q9HBH9)
T31 construct: purchased Thermo Fisher Scientific SelectScreen (plus Nanosyn / Reaction Biology for CDK/cyclin lines)
Source text: as §1

ACVR1 (ALK2) = target: T32, ACVR1 (ALK2) (Homo sapiens, UniProt Q04771)
T32 construct: purchased Thermo Fisher Scientific SelectScreen (plus Nanosyn / Reaction Biology for CDK/cyclin lines)
Source text: as §1

MLCK (MLCK2) = target: T33, MLCK (MLCK2) (Homo sapiens, UniProt Q32MK0)
T33 construct: purchased Thermo Fisher Scientific SelectScreen (plus Nanosyn / Reaction Biology for CDK/cyclin lines)
Source text: as §1

CLK4 = target: T34, CLK4 (Homo sapiens, UniProt Q9HAZ1)
T34 construct: purchased Thermo Fisher Scientific SelectScreen (plus Nanosyn / Reaction Biology for CDK/cyclin lines)
Source text: as §1

STK32C (YANK3) = target: T35, STK32C (YANK3) (Homo sapiens, UniProt Q86UX6)
T35 construct: purchased Thermo Fisher Scientific SelectScreen (plus Nanosyn / Reaction Biology for CDK/cyclin lines)
Source text: as §1

TEC = target: T36, TEC (Homo sapiens, UniProt P42680)
T36 construct: purchased Thermo Fisher Scientific SelectScreen (plus Nanosyn / Reaction Biology for CDK/cyclin lines)
Source text: as §1

NUAK2 = target: T37, NUAK2 (Homo sapiens, UniProt Q9H093)
T37 construct: purchased Thermo Fisher Scientific SelectScreen (plus Nanosyn / Reaction Biology for CDK/cyclin lines)
Source text: as §1

AMPK (A2/B2/G1) = target: T38, AMPK (A2/B2/G1) (Homo sapiens, UniProt P54646)
T38 construct: purchased Thermo Fisher Scientific SelectScreen (plus Nanosyn / Reaction Biology for CDK/cyclin lines)
Source text: as §1

T29 sequence (P45983 whole entry): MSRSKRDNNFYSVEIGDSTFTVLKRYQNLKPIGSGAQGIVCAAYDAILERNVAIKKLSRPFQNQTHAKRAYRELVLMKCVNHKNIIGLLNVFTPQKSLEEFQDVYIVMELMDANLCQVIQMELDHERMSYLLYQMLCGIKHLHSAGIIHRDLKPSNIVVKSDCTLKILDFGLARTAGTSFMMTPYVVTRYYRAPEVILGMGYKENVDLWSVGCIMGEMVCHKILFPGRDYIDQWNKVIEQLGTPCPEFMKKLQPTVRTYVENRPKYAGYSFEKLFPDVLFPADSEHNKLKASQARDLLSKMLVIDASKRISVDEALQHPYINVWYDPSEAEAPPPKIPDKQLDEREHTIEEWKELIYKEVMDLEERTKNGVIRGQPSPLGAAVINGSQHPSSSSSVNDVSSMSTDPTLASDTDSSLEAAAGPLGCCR
T26 sequence (Q13555 whole entry): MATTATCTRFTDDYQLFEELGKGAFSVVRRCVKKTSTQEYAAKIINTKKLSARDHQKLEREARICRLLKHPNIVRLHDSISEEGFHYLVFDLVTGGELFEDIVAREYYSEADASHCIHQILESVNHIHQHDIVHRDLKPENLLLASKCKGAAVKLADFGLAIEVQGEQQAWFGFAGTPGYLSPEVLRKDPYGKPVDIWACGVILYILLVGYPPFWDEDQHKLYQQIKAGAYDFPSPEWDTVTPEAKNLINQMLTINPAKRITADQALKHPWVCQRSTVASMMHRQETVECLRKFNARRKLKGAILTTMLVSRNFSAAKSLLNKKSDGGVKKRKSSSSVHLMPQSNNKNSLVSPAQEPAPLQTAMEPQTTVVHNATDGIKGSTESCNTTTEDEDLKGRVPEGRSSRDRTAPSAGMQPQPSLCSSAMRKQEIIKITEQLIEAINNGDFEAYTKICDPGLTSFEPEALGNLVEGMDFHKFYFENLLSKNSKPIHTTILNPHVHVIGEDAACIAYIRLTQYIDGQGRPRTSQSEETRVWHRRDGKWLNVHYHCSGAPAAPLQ
T5 sequence (Q9UKI8 whole entry): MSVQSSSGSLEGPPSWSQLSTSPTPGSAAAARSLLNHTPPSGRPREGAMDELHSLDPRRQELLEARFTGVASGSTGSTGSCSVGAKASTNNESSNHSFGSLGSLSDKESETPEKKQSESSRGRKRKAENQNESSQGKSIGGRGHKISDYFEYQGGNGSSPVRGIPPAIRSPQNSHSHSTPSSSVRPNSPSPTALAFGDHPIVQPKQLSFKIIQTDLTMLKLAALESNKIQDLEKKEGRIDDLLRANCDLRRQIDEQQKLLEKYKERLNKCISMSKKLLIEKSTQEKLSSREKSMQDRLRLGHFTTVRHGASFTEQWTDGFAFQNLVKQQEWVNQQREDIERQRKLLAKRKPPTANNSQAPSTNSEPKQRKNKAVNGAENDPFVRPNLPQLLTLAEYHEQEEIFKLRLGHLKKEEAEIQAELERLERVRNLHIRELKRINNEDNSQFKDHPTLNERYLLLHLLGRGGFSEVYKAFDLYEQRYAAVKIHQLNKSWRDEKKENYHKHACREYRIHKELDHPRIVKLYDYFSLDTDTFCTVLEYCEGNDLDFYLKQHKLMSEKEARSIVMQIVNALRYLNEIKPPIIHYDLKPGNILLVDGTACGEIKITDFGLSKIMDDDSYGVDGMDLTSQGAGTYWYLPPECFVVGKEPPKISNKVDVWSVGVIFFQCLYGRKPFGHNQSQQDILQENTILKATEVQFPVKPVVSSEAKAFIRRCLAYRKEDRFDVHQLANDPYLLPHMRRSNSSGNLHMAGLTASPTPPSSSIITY
T35 sequence (Q86UX6 whole entry): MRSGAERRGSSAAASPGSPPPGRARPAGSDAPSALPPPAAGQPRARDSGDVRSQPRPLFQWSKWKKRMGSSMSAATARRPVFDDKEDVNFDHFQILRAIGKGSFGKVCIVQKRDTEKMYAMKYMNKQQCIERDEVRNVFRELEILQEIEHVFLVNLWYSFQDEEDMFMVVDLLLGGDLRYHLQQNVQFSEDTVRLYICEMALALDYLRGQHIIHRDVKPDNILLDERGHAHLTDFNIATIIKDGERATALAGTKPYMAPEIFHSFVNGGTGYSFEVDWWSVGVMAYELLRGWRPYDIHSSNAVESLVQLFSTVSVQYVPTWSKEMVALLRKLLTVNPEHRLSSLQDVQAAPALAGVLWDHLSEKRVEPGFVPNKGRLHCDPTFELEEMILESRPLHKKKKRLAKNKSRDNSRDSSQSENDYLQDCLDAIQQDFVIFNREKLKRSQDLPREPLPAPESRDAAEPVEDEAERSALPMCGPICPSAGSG
T32 sequence (Q04771 21-509): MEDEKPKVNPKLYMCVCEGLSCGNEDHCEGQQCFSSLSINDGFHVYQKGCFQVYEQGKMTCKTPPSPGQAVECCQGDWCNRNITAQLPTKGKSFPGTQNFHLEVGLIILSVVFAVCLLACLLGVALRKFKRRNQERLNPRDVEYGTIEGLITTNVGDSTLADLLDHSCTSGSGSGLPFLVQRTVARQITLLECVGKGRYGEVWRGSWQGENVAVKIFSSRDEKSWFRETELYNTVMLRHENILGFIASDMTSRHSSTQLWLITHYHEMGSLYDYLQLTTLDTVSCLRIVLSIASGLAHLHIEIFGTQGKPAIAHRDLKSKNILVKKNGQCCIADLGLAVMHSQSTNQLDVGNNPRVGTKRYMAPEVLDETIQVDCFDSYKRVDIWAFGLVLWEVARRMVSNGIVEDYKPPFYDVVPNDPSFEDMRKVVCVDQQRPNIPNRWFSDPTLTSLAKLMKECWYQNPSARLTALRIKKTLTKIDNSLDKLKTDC
T19 sequence (P07949 29-1114 G691S): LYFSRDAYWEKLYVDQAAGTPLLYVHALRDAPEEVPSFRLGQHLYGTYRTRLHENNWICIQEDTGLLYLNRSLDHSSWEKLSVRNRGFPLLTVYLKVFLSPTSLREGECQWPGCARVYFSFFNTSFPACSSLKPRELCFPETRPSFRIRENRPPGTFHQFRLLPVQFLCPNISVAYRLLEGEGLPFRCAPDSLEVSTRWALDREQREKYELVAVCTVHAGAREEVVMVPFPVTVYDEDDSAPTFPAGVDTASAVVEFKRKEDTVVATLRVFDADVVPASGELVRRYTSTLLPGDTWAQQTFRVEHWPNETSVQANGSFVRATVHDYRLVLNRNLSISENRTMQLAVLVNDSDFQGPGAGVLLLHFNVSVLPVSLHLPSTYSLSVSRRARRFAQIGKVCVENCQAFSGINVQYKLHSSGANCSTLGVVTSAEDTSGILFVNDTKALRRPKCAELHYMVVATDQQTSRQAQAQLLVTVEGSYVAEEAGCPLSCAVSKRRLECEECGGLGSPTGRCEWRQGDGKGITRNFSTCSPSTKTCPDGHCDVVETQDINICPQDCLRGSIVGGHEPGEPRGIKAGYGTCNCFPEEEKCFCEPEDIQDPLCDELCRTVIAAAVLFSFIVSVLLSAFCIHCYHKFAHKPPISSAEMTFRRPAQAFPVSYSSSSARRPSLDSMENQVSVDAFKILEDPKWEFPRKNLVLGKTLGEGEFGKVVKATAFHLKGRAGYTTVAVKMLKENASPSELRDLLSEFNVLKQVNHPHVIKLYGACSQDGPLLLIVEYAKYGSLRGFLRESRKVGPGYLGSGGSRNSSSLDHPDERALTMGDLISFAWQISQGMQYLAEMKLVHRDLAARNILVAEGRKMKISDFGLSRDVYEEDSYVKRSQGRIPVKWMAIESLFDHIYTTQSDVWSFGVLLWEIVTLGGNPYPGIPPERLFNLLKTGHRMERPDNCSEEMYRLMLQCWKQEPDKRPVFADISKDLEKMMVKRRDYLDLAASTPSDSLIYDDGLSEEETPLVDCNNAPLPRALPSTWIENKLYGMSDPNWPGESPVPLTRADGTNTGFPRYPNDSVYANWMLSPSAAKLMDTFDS
T31 sequence (Q9HBH9 whole entry): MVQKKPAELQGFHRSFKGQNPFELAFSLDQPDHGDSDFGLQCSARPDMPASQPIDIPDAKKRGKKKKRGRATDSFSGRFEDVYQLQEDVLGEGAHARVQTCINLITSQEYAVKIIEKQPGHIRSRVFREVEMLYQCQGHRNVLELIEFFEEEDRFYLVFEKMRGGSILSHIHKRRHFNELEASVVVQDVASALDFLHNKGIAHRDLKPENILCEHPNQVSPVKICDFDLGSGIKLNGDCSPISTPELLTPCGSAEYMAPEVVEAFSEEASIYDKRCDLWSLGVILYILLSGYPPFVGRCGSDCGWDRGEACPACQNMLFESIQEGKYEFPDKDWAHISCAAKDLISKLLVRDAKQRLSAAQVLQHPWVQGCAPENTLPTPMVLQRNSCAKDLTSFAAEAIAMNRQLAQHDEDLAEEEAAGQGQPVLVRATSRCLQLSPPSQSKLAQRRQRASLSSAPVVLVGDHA
T3 sequence (Q8N5S9 whole entry): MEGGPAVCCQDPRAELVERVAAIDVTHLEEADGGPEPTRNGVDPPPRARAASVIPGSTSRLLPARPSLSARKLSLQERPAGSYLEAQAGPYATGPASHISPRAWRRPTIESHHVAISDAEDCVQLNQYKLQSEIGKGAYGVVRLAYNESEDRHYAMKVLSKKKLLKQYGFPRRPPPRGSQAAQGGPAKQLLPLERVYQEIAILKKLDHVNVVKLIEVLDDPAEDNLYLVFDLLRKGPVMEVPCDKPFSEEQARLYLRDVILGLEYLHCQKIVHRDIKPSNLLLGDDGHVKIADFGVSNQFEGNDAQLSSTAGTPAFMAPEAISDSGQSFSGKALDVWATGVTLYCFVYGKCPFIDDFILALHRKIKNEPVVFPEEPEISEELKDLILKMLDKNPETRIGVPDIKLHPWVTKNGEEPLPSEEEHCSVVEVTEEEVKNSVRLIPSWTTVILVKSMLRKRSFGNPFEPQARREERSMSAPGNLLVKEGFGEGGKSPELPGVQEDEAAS
T20 sequence (P07949 29-1114 V804M): as the sequence (P07949 29-1114 G691S) above, with S663G, V776M counted along it

Q: Which inhibition at 0.1 µM (MET D1228H) does the source give for NS(=O)(=O)c1ccc(Nc2ncc3cc4n(c3n2)C2(CCCCC2)C(=O)NN4)cc1 [INX-315] here?
A: -6%

Q: And the inhibition at 0.1 µM (MAP2K6 (MKK6))?
A: -3%

Q: And the inhibition at 0.1 µM (CAMKK1 (CAMKKA))?
A: 6%

Q: What about the inhibition at 0.1 µM (ALK C1156Y) of the same compound?
A: 9%

Q: What about the inhibition at 0.1 µM (TLK1) of the same compound?
A: 0%

Q: What about the inhibition at 0.1 µM (MAP3K10 (MLK2)) of the same compound?
A: 8%

Q: What about the inhibition at 0.1 µM (CDK9 (Inactive)) of the same compound?
A: 44%

Q: And the inhibition at 0.1 µM (STK39 (STLK3))?
A: 14%

Q: And the inhibition at 0.1 µM (BRSK2)?
A: 4%

Q: What about the inhibition at 0.1 µM (ACVRL1 (ALK1)) of the same compound?
A: 2%

Q: What about the inhibition at 0.1 µM (BMPR1B (ALK6)) of the same compound?
A: 1%

Q: And the inhibition at 0.1 µM (KIT Y823D)?
A: 31%

Q: And the inhibition at 0.1 µM (CDC7/DBF4)?
A: -1%

Q: What about the inhibition at 0.1 µM (ABL1 Q252H) of the same compound?
A: 19%

Q: What about the inhibition at 0.1 µM (TLK2) of the same compound?
A: 13%

Q: And the inhibition at 0.1 µM (MAPK9 (JNK2))?
A: 4%

Q: And the inhibition at 0.1 µM (SLK)?
A: 22%

Q: What about the inhibition at 0.1 µM (MYLK4) of the same compound?
A: 20%

Q: What about the inhibition at 0.1 µM (RET G691S) of the same compound?
A: 35%

Q: What about the inhibition at 0.1 µM (RET V804M) of the same compound?
A: 21%

Q: What about the inhibition at 0.1 µM (KIT D820E) of the same compound?
A: 12%

Q: And the inhibition at 0.1 µM (CDK8/cyclin C)?
A: 0%

Q: And the inhibition at 0.1 µM (KIT N822K)?
A: 17%

Q: And the inhibition at 0.1 µM (FYN A)?
A: 7%

Q: And the inhibition at 0.1 µM (PRKACB (PRKAC beta))?
A: 1%

Q: And the inhibition at 0.1 µM (CAMK2G (CaMKII gamma))?
A: -1%

Q: What about the inhibition at 0.1 µM (EPHA3) of the same compound?
A: -1%

Q: And the inhibition at 0.1 µM (CDK11/cyclin C)?
A: 1%

Q: And the inhibition at 0.1 µM (MAPK8 (JNK1))?
A: 18%

Q: And the inhibition at 0.1 µM (MAP3K2 (MEKK2))?
A: 12%

Q: What about the inhibition at 0.1 µM (MKNK2 (MNK2)) of the same compound?
A: 2%

Q: What about the inhibition at 0.1 µM (ACVR1 (ALK2)) of the same compound?
A: -5%

Q: And the inhibition at 0.1 µM (MLCK (MLCK2))?
A: 5%

Q: And the inhibition at 0.1 µM (CLK4)?
A: -2%

Q: What about the inhibition at 0.1 µM (STK32C (YANK3)) of the same compound?
A: -1%

Q: What about the inhibition at 0.1 µM (TEC) of the same compound?
A: 4%

Q: And the inhibition at 0.1 µM (NUAK2)?
A: 35%

Q: And the inhibition at 0.1 µM (AMPK (A2/B2/G1))?
A: 9%
